Test results: US7514428B2, “Pesticidal 1-aryl-3-amidoxime-pyrazole derivatives” (Merial Limited, priority 2002, dated 2009)

system: Ctenocephalides felis, Diabrotica undecimpunctata, Nephotettix cincticeps, Rhipicephalus sanguineus; experiment: Parasiticidal and pesticidal tests, Methods A to E taken together (active in one or more of the tests, test not specified); format: in vivo; settings: active = at least 90% control (A, 5 ppm or less), 90% (B, 10 ppm), 98% mortality (C, 100 ppm), 70% (D, 1000 ppm) or 70% (E, 100 ppm); test not given per compound
Experimental: The following representative test procedures, using compounds of the invention, were conducted to determine the parasiticidal and pesticidal activity of compounds of the invention.
Method A: Screening Method to Test Systemicity of Compounds Against Ctenocephalides Felis (Cat Flea)
A test container was filled with 10 adults of Ctenocephalides felis. A glass cylinder was closed on one end with parafilm and placed on top of the test container. The test compound solution was then pipetted into bovine blood and added to the glass cylinder. The treated Ctenocephalides felis were held in this artificial dog test (blood 37° C., 40-60% relative humidity; Ctenocephalides felis 20-22° C., 40-60% relative humidity) and assessment performed at 24 and 48 hours after application.
Active compounds gave at least 90% control of Ctenocephalides felis at a test concentration of 5 ppm or less.
Method B: Diabrotica Undecimpunctata (Southern Corn Rootworm) Screen
Two days before application, seeds of maize were soaked in water under warm conditions to elicit fast germination. One day before application, eggs of Diabrotica undecimpunctata were transferred to one half of a Japanese filter paper placed in a plastic petri dish. Afterwards, a sprouted maize seed was placed on a moistened pad beside the filter paper. Three drops of 200 microlitres of test compound solution were carefully pipetted onto the egg. The remainder of the solution was placed on the maize and then the Petri dish was closed. The treated eggs in the Petri dishes were held in a climate chamber for 6 days. The compound efficacy (percentage of dead eggs and/or larvae in comparison to untreated control) was assessed 6 days after application using a binocular microscope. […]
The leaves of 12 rice plants having a stem length of 8 cm were dipped for 5 seconds into an aqueous solution of the formulated test compound. […] After 6 days storage, the percentage mortality of leafhopper larvae was determined. […]
Solutions of the test compounds were dropped onto filter paper, dried and the filter paper placed into test tubes and infested with 10 adults of Ctenocephalides felis. The treated Ctenocephalides felis were held in a climate chamber (26° C., 80% RH) and the percentage efficacy assessed 24 hours and 48 hours after application in comparison with the untreated control. […]
Solutions of the test compounds were dropped onto filter paper, dried and the filter paper placed into test tubes and infested with 20-30 larvae (L1) of Rhipicephalus sanguineus and the tubes closed with a clip. The treated Rhipicephalus sanguineus were held in a climate chamber (25° C., 90% RH) and the percentage efficacy assessed 24 hours after application in comparison with the untreated control. […]

SMILES | active in one or more of the above tests
CNc1c(S(=O)(=O)C(F)(F)F)c(C(N)=NOCc2ccccc2)nn1-c1c(Cl)cc(C(F)(F)F)cc1Cl [Compound 1-49, 1-(2,6-Dichloro-4-trifluoromethylphenyl)-3-(N-benzyloxy-2-amidino)-5-methylamino-4-trifluoromethylsulfonylpyrazole] | active
CNc1c([S+]([O-])C(F)(F)F)c(C(=N)N(C)OCc2c(Cl)cccc2Cl)nn1-c1c(Cl)cc(C(F)(F)F)cc1Cl (stereo not shown) [Compound 4-82, 1-(2,6-Dichloro-4-trifluoromethylphenyl)-3-[N-(2,6-dichlorobenzyloxy)-N-methyl-2-amidino]-5-methylamino-4-trifluoromethylsulfinylpyrazole] | active
CNc1c([S+]([O-])C(F)(F)F)c(C(=N)N(C)OCc2ccc(C(F)(F)F)cc2)nn1-c1c(Cl)cc(C(F)(F)F)cc1Cl (stereo not shown) [Compound 4-93, 1-(2,6-Dichloro-4-trifluoromethylphenyl)-3-[N-methyl-N-(4-trifluoromethylbenzyloxy)-2-amidino]-5-methylamino-4-trifluoromethylsulfinylpyrazole] | active
CNc1c(S(=O)(=O)C(F)(F)F)c(C(=N)N(C)OCc2ccc(C(F)(F)F)cc2)nn1-c1c(Cl)cc(C(F)(F)F)cc1Cl [Compound 4-128, 1-(2,6-Dichloro-4-trifluoromethylphenyl)-3-[N-methyl-N-(4-trifluoromethylbenzyloxy)-2-amidino]-5-methylamino-4-trifluoromethylsulfonylpyrazole] | active
